# pEC50: −log10 of the molar value. Structures can show the parent of a compound that is named as a salt.
# Tests used:
# [1] = Conversion to compound (I) in fresh rat blood; type: in vitro ADME; details: fresh blood 37° C., 1 μg/mL, 0-60 minutes, FIG. 8a
# Experimental: (§1) Conversion of (Id-ia), (Id-ib), (Id-iia) and (Id-iib) in human blood (average of 3 donors) and rat blood (average of 45 donors) to (I) was shown in fresh blood at 37° C. spiked with 1 μg/mL of (Id-ia), (Id-ib), (Id-iia) and (Id-iib) separately, (I) was measured at 0, 5, 15, 30 and 60 minutes in isolated plasma. Analysis method and Instrumentation as described in Examples 4 and 5 below in the section “Instrumentation used for analysis of compound (I) from dosing of compounds (Ic), (Id-ia), (Id-ib), (Id-iia), (Id-iib), (Id-iab) and (Id-iiab).”
# [2] = PK experiments in rats: plasma compound (I) after oral dosing of prodrugs; type: in vivo, Han Wistar rats; details: Wistar rats, FIG. 2, doses equal to 287 μg/kg of compound (I)
# Experimental: Plasma was placed on water-ice following collection. Final storage at approximately −70° C.
# Mobile phase B: Acetonitrile. […] Flow rate 0.5 mL/min.
# The rats had unrestricted access to the diet.
# Mobile phase B: Acetonitrile+0.2% formic acid. […] Flow rate 0.3 mL/min.
# Han Wistar rats were supplied by Envigo, UK. […] The rats received a standard laboratory diet Teklad 2014C. The rats had unrestricted access to the diet.
# [3] = Conversion to compound (I) in fresh human blood; type: in vitro ADME; details: fresh blood 37° C., 1 μg/mL, 0-60 minutes, FIG. 8b
# Experimental: as §1
# hepatocytes from rat = experiment: Conversion to compound (I) in rat hepatocytes; type: in vitro ADME; details: 1 μg/mL, 37° C., 0.25-60 minutes, FIG. 7a
# Experimental: The cell concentration at incubation was 1×10^6 viable cells/mL. The incubations were performed in glass tubes at 37° C. with a total incubation volume of 3.5 mL and with duplicate incubations for each test item. The 3.5 mL of hepatocyte suspension was equilibrated for 10 minutes in a water bath set to 37° C. where after the incubations were initiated by adding 3.5 μL of a stock solution of the test item in DMSO (Dimethyl sulfoxide) and gently inverting the tubes. The final solvent concentration in the incubations was 0.1% DMSO. Samples of 600 μL were withdrawn from the incubations at the pre-determined time points of 0.25, 5, 15, 30 and 60 minutes after ensuring homogeneity of hepatocyte suspensions. The withdrawn volume was added to 1 mL Nunc cryo tubes on wet ice containing 60 μL of ice cold ascorbic acid (100 mg/mL) and 30 μL of ice cold 100 mM saccharic acid 1.4-lactone in 0.5 M citric acid. The tubes were mixed and 35 μL of a solution of ice cold 20% formic acid was added. The tubes were mixed thoroughly and stored at −80° C. awaiting analysis. Analysis method and Instrumentation used for analysis of (I) from dosing (Id-ia), (Id-ib), (Id-iia) and (Id-iib), were the one described in Examples 4 and 5 below in the section “Instrumentation used for analysis of compound (I) from dosing of compounds (Ic), (Id-ia), (Id-ib), (Id-iia), (Id-iib), (Id-iab) and (Id-iiab).”
# Analysis method and Instrumentation used for analysis of (I) from dosing (Id-iab) and (Id-iiab) consisted of mixing equal aliquots of the samples and precipitation solution (acetonitrile (MeCN) with 10% methanol (MeOH) and 1% formic acid), followed by centrifugation at 4° C. at 16000 g for 10 minutes. Supernatants were collected and analysed by LC-MS/MS. Mass spectrometer: Waters Acquity—Waters Xevo TQ-MS. Analytical column: Acquity UPLC HSS T3, 100×2.1 mm, 1.8 μm. Mobile phase A: 0.2% formic acid in water. Mobile phase B: 0.2% formic acid in acetonitrile. Gradient run from 95/5% to 60/40 in 5 min. Flow rate 0.3 mL/min. MRM monitoring of (I) in the study samples and in the analytical standards.
# human D1 receptor = human D1 receptor (Homo sapiens (Human), UniProt P21728); experiment: Dopamine D1 receptor agonism, HTRF cAMP assay; type: cell-based; details: for Emax: normalized to 30 uM dopamine = 100%
# Chain of human D1 receptor (P21728 whole entry): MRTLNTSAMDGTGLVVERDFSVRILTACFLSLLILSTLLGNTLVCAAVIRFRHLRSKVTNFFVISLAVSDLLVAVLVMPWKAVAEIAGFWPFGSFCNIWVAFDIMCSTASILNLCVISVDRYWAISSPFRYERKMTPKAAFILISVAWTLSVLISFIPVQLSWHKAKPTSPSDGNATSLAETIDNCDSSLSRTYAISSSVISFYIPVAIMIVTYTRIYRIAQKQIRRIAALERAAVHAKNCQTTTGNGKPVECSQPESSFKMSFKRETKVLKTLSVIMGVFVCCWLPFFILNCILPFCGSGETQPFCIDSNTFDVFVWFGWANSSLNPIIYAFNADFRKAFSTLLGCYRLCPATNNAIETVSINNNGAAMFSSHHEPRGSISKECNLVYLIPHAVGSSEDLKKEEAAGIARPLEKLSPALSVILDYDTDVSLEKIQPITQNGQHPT
# Experimental: Dopamine D1 receptor agonism was measured using a HTRF cAMP from CisBio using the protocol developed by HD Biosciences (China). Briefly, the assay is a homogeneous time resolved-fluorescence resonance energy transfer (HTRF) assay that measures production of cAMP by cells in a competitive immunoassay between native cAMP produced by cells and cAMP-labeled with XL-665. A cryptate-labeled anti-cAMP antibody visualizes the tracer. The assay was performed in accordance with instructions from manufacturer.
# Test compounds were added to wells of microplates (384 format). HEK-293 cells expressing the human D1 receptor were plated at 1000 cells/well and incubated 30 min at room temperature. cAMP-d2 tracer was added to wells and followed by addition of Anti-cAMP antibody-cryptate preparation and incubated for 1 h at room temperature in dark. HTRF cAMP was measured by excitation of the donor with 337 nm laser (the “TRF light unit”) and subsequent (delay time 100 microseconds) measurement of cryptate and d2 emission at 615 nm and 665 nm over a time window of 200 microseconds with a 2000 microseconds time window between repeats/100 flashes). HRTF measurements were performed on an Envision microplate reader (PerkinElmer). The HTRF signal was calculated as the emission-ratio at 665 nm over 615 nm. The HTRF ratio readout for test compounds was normalized to 0% and 100% stimulation using control wells with DMSO-solvent or 30 uM dopamine. Test compound potency (EC50) was estimated by nonlinear regression using the sigmoidal dose-response (variable slope) using Xlfit 4 (IDBS, Guildford, Surrey, UK, model 205). y=(A+((B−A)/(1+((C/x)^D)))) where y is the normalized HTRF ratio measurement for a given concentration of test compound, x is the concentration of test compound, A is the estimated efficacy at infinite compound dilution, and B is the maximal efficacy. C is the EC50 value and D is the Hill slope coefficient. EC50 estimates were obtained from an independent experiment and the logarithmic average was calculated. Dopamine D2 Receptor Agonism
SMILES,conversion to compound (I) in rat blood [1],plasma profile of compound (I) after oral dosing (in words) [2],conversion to compound (I) in human blood [3],conversion to compound (I) in rat hepatocytes (hepatocytes from rat),"in vitro dopaminergic activity (in words) (human D1 receptor; D1 and D2, example 2)",Emax (human D1 receptor),"pEC50 (human D1 receptor; HEK-293 cells expressing human D1 receptor, cAMP)"
"CCCN1CCC[C@@H]2Cc3c(ccc(O)c3O[C@@H]3O[C@H](C(=O)O)[C@@H](O)[C@H](O)[C@H]3O)C[C@H]21 [(Id-ia), (2S,3S,4S,5R,6S)-3,4,5-trihydroxy-6-(((4aR,10aR)-7-hydroxy-1-propyl-1,2,3,4,4a,5,10,10a-octahydrobenzo[g]quinolin-6-yl)oxy)tetrahydro-2H-pyran-2-carboxylic acid]",time dependent conversion to compound (I),slower absorption rate avoiding rapid peak concentrations accompanied by a sustained exposure of compound (I) in plasma,time dependent conversion to compound (I),time dependent conversion to compound (I),no in vitro dopaminergic activity,98%,
"CCCN1CCC[C@@H]2Cc3c(ccc(O)c3OS(=O)(=O)O)C[C@H]21 [(Id-iia), (4aR,10aR)-7-hydroxy-1-propyl-1,2,3,4,4a,5,10,10a-octahydrobenzo[g]quinolin-6-yl hydrogen sulfate]",time dependent conversion to compound (I),slower absorption rate avoiding rapid peak concentrations accompanied by a sustained exposure of compound (I) in plasma,time dependent conversion to compound (I),time dependent conversion to compound (I),,49%,< 4.52

# From patent US10729710B2, “Catecholamine prodrugs for use in the treatment of Parkinson's disease” (H. Lundbeck A/S, priority 2017, dated 2020)
